From patent US11453640B2, “Small molecules for disrupting the super elongation complex and inhibiting transcription elongation for cancer therapy” (NORTHWESTERN UNIVERSITY, priority 2018, dated 2022) come the findings set out here.

For one assay, the system named is Pol II. Description: 4sU-FP-seq measurement of Pol II transcription elongation rate in HEK293T cells. The assay is classed as cell-based, human. Conditions: 20 μM pretreatment 5 hr, HMM analysis, 982 genes. On the procedure:
FIG. 4. Small molecule disruption of SEC slows Pol II elongation rates. (A) Workflow of 4sU-FP-seq based measurement of the transcription elongation rate of RNA Pol II. HEK293T cells were pretreated with vehicle or 20 μM SEC inhibitors for 5 hr before addition of the CDK9 inhibitor flavopiridol for 1 hr to arrest Pol II at the promoter-proximal pause site. Inhibitors are washed out with PBS before allowing transcription to proceed in the presence of with fresh medium containing 500 μM 4-Thiouridine (4sU) for 15 min. The 4sU-labeled RNA is then extracted and fragmented before purification, and followed with RNA-seq. (B) Genome browser tracks of 4sU-FP-seq for vehicle and SEC inhibitor-treated cells at the ACTN2 and MTR loci. […] (C) Heatmap analysis of 4sU-FP-seq in vehicle and the indicated SEC inhibitors in HEK293T cells. All genes longer than 50 kb (N=5,568) were plotted and ordered using the total 4sU-FP-seq signals in the vehicle-treated cells. (D) Metaplot of strand-specific 4sU-FP-seq signals in vehicle and SEC inhibitors-treated cells. […] Raw changes in 4sU-FP-seq read counts in non-overlapping 50 bp windows used to infer elongation rates for the MTR gene. […] (F-G) Histograms (F) and boxplots (G) comparing the transcription elongation rates for 982 genes in HEK293T cells for which high confidence elongation rates could be determined. […]

Another assay concerns MYC. Description: mRNA-seq of 293T cells after 24 hr treatment. The format is cell-based, human. The text has this: FIG. 6. SEC disruption targets MYC and MYC target genes. (A-B) Venn diagram of deregulated genes in 293T cells by KL-1 and KL-2. […] (C) Heat map showing the expression changes in response to SEC inhibitors, with differentially expressed canonical MYC targets, RNA splicing factors, and core SNRP assembly genes highlighted. […] Each cluster is represented by different colors and a circle node denotes each enriched term. (E) MA plots of RNA splicing and Hallmark MYC target genes in KL-2 treated, AFF1 and AFF4 co-depletion, and ELL2-depleted cells. […] The MYC genes, the PRMT5 gene, and genes encoding SEC components are denoted as red squares. (F) Western analysis of MYC protein levels in the MYC lowly expressed small cell lung cancer cell line […] and MYC-amplified small cell lung cancer cell line H2171. […] The SEC and MYC peaks were determined by MACS with a p-value cutoff at 1E-5. […] Both cell lines were treated with increasing concentrations of KL-1 and KL-2 for 3 days and the cell proliferation was measured with CellTiter-Glo luminescent cell viability assay (Promega) (n=3-6).
RNA-seq Analysis. […] Exonic reads were assigned to specific genes from Ensembl release 75 using Bioconductor package GenomicRanges countOverlaps. […] The total number of uniquely mapped reads was provided to edgeR for the calcNormFactors normalization rather than the default column sums. […]

On to `COc1cccc(C(=O)CC(=O)C(=O)Nc2cc(Cl)ccc2C)c1` [KL-1, N-(5-chloro-2-methylphenyl)-4-oxo-4-(3-methoxyphenyl)-2-oxobutanamide], for which the “elongation rate of Pol II” value with Pol II was “decreased the elongation rate of Pol II”. In the assay with MYC, the MYC expression entry was “led to decreased MYC expression”.
